Here are results for four compounds from article PMC7179653 (Antimicrobial Agents and Chemotherapy, 2020).

Like-named read-outs stand apart in the source and are kept apart here.

On the set-up of series [1]: method as in PMID 25813217, PMID 29914955, PMID 27527080, PMID 29437614. The settings on record: healthy individuals; cited from earlier work.
The nature of series [2]: clinical. The conditions noted are these: human, in vivo. On the procedure:
All participants in the active group received a single 2,000-mg dose of both drugs on day 3 and q8h on days 4 to 8, with a final single dose of both drugs on the morning of day 9. A washout period of approximately 24 h between treatments was provided. Study treatments were administered as 30-min (SAD study) or 90-min (MAD study) i.v. infusions, the latter to investigate the pharmacokinetics using a longer infusion time, which is commonly used to increase the time above the MIC of β-lactams ([15]). The choice of a 90-min infusion time for the MAD study was dictated by the stability and toxicology data available at the time the study was being designed. […] Safety assessments included monitoring of AEs, laboratory safety tests (hematology, serum chemistry, and urinalysis), 12-lead ECG (discrete recordings and 24-h Holter recording), and vital signs (blood pressure, pulse rate, and body temperature). In the SAD study, safety assessments were performed predose at screening, at day 1, postdose periodically on days 1, 2, and 7 (follow-up), and at early withdrawal, if relevant. […] In the MAD study, safety assessments were done predose at screening, at day 2, postdose periodically on days 1, 2, 4, 7, and 8, on days 13 to 15 (follow-up), and at early withdrawal, if relevant. […] On all other days, a single predose sample was collected for pharmacokinetic evaluation prior to the morning infusion. Blood was collected into lithium-heparin tubes and stored at a nominal –80°C temperature until analysis.

Consider `NC(=O)[C@@H]1CC[C@@H]2CN1C(=O)N2OS(=O)(=O)O` [avibactam], for which the half-life (usually how long it takes for the measured level to halve) in series [1] is given as “approximately 2 h”.

For the compound `C[C@@H](O)[C@H]1C(=O)N2C(C(=O)O)=C(S[C@@H]3CN[C@H](C(=O)N(C)C)C3)[C@H](C)[C@H]12` [meropenem], the Tmax – broadly, the time at which the peak concentration occurs – in series [2] is 1 h. Also, the clearance (as a rule, the volume of plasma or blood freed of the substance per unit of time) in series [2] (CL) was 253 mL/min. The compound further gave a CL renal in series [2] (CLr) of 161 mL/min. For the same compound, in series [2] (Vdss), the volume of distribution (Vd) (as a rule, the apparent volume that relates the amount in the body to the concentration in plasma or blood) turned out to be 19.8 L. In series [2] (t1/2), this compound showed a half-life of 1.3 h.

In the case of `O=C(NC1CCNCC1)[C@@H]1CC[C@@H]2CN1C(=O)N2OS(=O)(=O)O` [relebactam], the half-life entry in series [1] was “approximately 2 h”.

Take `O=C(O)C[C@@H]1CC[C@H](NC(=O)Cc2cccs2)B(O)O1` [vaborbactam]: in series [1], the half-life result is on record as “approximately 2 h”.
